Assay [1] relates to HL-60. Put plainly: Growth inhibition of human HL60 cells at 1 uM after 3 days. Type of assay: functional. Particulars: HL-60, 72 h.
The subject of assay [2] is HL-60. Put plainly: Growth inhibition of human HL60 cells at 10 uM after 3 days. The following applies: HL-60, 72 h. In kind it is functional.

Consider 16 compounds from ChEMBL document CHEMBL1157187, “Chemical synthesis of 2beta-amino-5alpha-androstane-3alpha,17beta-diol N-derivatives and their antiproliferative effect on HL-60 human leukemia cells” (Bioorg Med Chem, 2008).

In the case of `CCCCCCCN[C@H]1C[C@@]2(C)[C@@H](CC[C@@H]3[C@@H]2CC[C@]2(C)[C@@H](O)CC[C@@H]32)C[C@@H]1O`, the inhibition – broadly, the relative decrease from the control value, in per cent – at 1 µM with HL-60 [1] came out at 10.1%. This compound also displayed an inhibition at 10 µM with HL-60 [2] of 82.3%.

Compound `C[C@]12C[C@H](NCC34CC5CC(CC(C5)C3)C4)[C@@H](O)C[C@@H]1CC[C@@H]1[C@@H]2CC[C@]2(C)[C@@H](O)CC[C@@H]12` displayed an inhibition at 1 µM with HL-60 [1] of 6.4%. Further, in the assay on HL-60 [2], testing at 10 µM gave an inhibition of 85.8%.

For the compound `CCCCOCCCN[C@H]1C[C@@]2(C)[C@@H](CC[C@@H]3[C@@H]2CC[C@]2(C)[C@@H](O)CC[C@@H]32)C[C@@H]1O`, 1 µM produced 4.8% inhibition in the assay with HL-60 [1]. The compound further displayed an inhibition at 10 µM in the assay with HL-60 [2] of 26.5%.

The compound `C[C@]12C[C@H](N3CCCCC3)[C@@H](O)C[C@@H]1CC[C@@H]1[C@@H]2CC[C@]2(C)[C@@H](O)CC[C@@H]12` had an inhibition at 1 µM in the assay on HL-60 [1] of 0%. In the assay with HL-60 [2], the inhibition at 10 µM was found to be 1.5%.

`CCOCCCN[C@H]1C[C@@]2(C)[C@@H](CC[C@@H]3[C@@H]2CC[C@]2(C)[C@@H](O)CC[C@@H]32)C[C@@H]1O` had an inhibition at 1 µM in the assay with HL-60 [1] of 0%. The same compound showed an inhibition at 10 µM in the assay with HL-60 [2] of 10.8%.

In the assay with HL-60 [1], `CCCCC(=O)N1CCN([C@H]2C[C@@]3(C)[C@@H](CC[C@@H]4[C@@H]3CC[C@]3(C)[C@@H](O)CC[C@@H]43)C[C@@H]2O)CC1` returned an inhibition at 1 µM of 0%. Besides, 10 µM produced 7.4% inhibition in the assay with HL-60 [2].

On to `CC(C)(C)N[C@H]1C[C@@]2(C)[C@@H](CC[C@@H]3[C@@H]2CC[C@]2(C)[C@@H](O)CC[C@@H]32)C[C@@H]1O`, for which, in the assay on HL-60 [1], the inhibition at 1 µM came out at 0%. Moreover, testing at 10 µM in the assay on HL-60 [2] gave an inhibition of 0.5%.

Turning to `C[C@]12C[C@H](NC3CCCC3)[C@@H](O)C[C@@H]1CC[C@@H]1[C@@H]2CC[C@]2(C)[C@@H](O)CC[C@@H]12`, testing at 1 µM in the assay with HL-60 [1] gave an inhibition of 0%. In the assay on HL-60 [2], the inhibition at 10 µM was 0%.

Compound `CC(C)(C)CN[C@H]1C[C@@]2(C)[C@@H](CC[C@@H]3[C@@H]2CC[C@]2(C)[C@@H](O)CC[C@@H]32)C[C@@H]1O` yielded an inhibition at 1 µM in the assay on HL-60 [1] of 0%. This compound also gave an inhibition at 10 µM in the assay on HL-60 [2] of 3.3%.

The compound `CCCN[C@H]1C[C@@]2(C)[C@@H](CC[C@@H]3[C@@H]2CC[C@]2(C)[C@@H](O)CC[C@@H]32)C[C@@H]1O` came in with an inhibition at 1 µM in the assay with HL-60 [1] of 0%. For the same compound, in the assay on HL-60 [2], at 10 µM the inhibition was 0.4%.

The compound `CC(C)CCN[C@H]1C[C@@]2(C)[C@@H](CC[C@@H]3[C@@H]2CC[C@]2(C)[C@@H](O)CC[C@@H]32)C[C@@H]1O` registered an inhibition at 1 µM in the assay on HL-60 [1] of 0%. The same compound had an inhibition at 10 µM in the assay on HL-60 [2] of 3%.

In the assay with HL-60 [1], `CCC(C)(C)N[C@H]1C[C@@]2(C)[C@@H](CC[C@@H]3[C@@H]2CC[C@]2(C)[C@@H](O)CC[C@@H]32)C[C@@H]1O` came in with an inhibition at 1 µM of 0%. For the same compound, in the assay with HL-60 [2], testing at 10 µM gave an inhibition of 1.8%.

Consider `CCCCN[C@H]1C[C@@]2(C)[C@@H](CC[C@@H]3[C@@H]2CC[C@]2(C)[C@@H](O)CC[C@@H]32)C[C@@H]1O`, for which testing at 1 µM in the assay on HL-60 [1] gave an inhibition of 0%. The compound also displayed an inhibition at 10 µM with HL-60 [2] of 3.1%.

For `C[C@]12C[C@H](N3CCCCCC3)[C@@H](O)C[C@@H]1CC[C@@H]1[C@@H]2CC[C@]2(C)[C@@H](O)CC[C@@H]12`, the inhibition at 1 µM in the assay with HL-60 [1] came to 0%. This compound also had an inhibition at 10 µM with HL-60 [2] of 3.4%.

In the case of `C[C@]12C[C@H](N3CCN(Cc4ccc5c(c4)OCO5)CC3)[C@@H](O)C[C@@H]1CC[C@@H]1[C@@H]2CC[C@]2(C)[C@@H](O)CC[C@@H]12`, at 1 µM the inhibition with HL-60 [1] was 0%. In the assay with HL-60 [2], this compound returned an inhibition at 10 µM of 26.1%.

The compound `CC(C)CC(=O)N1CCN([C@H]2C[C@@]3(C)[C@@H](CC[C@@H]4[C@@H]3CC[C@]3(C)[C@@H](O)CC[C@@H]43)C[C@@H]2O)CC1` returned an inhibition at 1 µM in the assay on HL-60 [1] of 0%. This compound yielded an inhibition at 10 µM with HL-60 [2] of 5.5%.
